According to patent US10500318B1, “Dosing regimens for treating hypoxia-associated tissue damage” (Temple Therapeutics BV, priority 2018, dated 2019):
Residues, ends and D or L forms follow the SMILES beside them.

What was measured:
[1] = at room temperature; cited from earlier work
[2] = test system: HIF-1α; test: HIF-1α ELISA in normal peritoneal fibroblasts after episodic hypoxia and Ala-Gln treatment; type: cell-based; details: for HIF-1α 12 hours after hypoxia initiation / HIF-1α 24 hours after hypoxia initiation: NPF
Procedure: Primary cultures of normal peritoneal fibroblasts (NPF) were established and pre-hypoxia samples were taken to determine levels of HIF-1α and Type 1 Collagen (COL1A1) under normoxic conditions prior to exposure to episodic hypoxic environments. Cultured cells were exposed to episodes of hypoxia (2% 02; 0.5, 1, 2, or 4, […] hours), followed by restoration of normoxia (20% O2) and immediate treatment with Ala-[…], 1, 2, or 10 mM). Levels of HIF-1α and COL1A1 were measured at 12 hours and 24 hours following the initiation of hypoxia. All treatments were completed in triplicate. HIF-1α and COL1A1 levels were determined by ELISA (HIF-1α ELISA (ThermoFisher Scientific) or COL1A1 ELISA (LifeSpan Biosciences), respectively, per the manufacturer's protocol). Data were analyzed with one-way ANOVA followed by Tukey's tests with Bonferroni correction. Results for HIF-1α are in Tables 1-3.

NC(=O)CC[C@H](N)C(=O)O [L-glutamine]
water solubility [1]: about 40 g/L

C[C@H](N)C(=O)N[C@@H](CCC(N)=O)C(=O)O [AG, L-alanyl-L-glutamine] (H-Ala-Gln-OH)
HIF-1α difference from untreated controls ([2]; AG 1.0 mM, 12 h post hypoxia initiation, hypoxia time 0.5 h): 3.6 pg/mg protein | HIF-1α difference from untreated controls ([2]; AG 1.0 mM, 12 h post hypoxia initiation, hypoxia time 1.0 h): 2.3 pg/mg protein | HIF-1α difference from untreated controls ([2]; AG 1.0 mM, 12 h post hypoxia initiation, hypoxia time 2.0 h): 2.4 pg/mg protein | HIF-1α difference from untreated controls ([2]; AG 1.0 mM, 12 h post hypoxia initiation, hypoxia time 4.0 h): 0.9 pg/mg protein | HIF-1α difference from untreated controls ([2]; AG 1.0 mM, 24 h post hypoxia initiation, hypoxia time 0.5 h): 1.6 pg/mg protein | HIF-1α difference from untreated controls ([2]; AG 1.0 mM, 24 h post hypoxia initiation, hypoxia time 1.0 h): 3.1 pg/mg protein | HIF-1α difference from untreated controls ([2]; AG 1.0 mM, 24 h post hypoxia initiation, hypoxia time 2.0 h): 1.8 pg/mg protein | HIF-1α difference from untreated controls ([2]; AG 1.0 mM, 24 h post hypoxia initiation, hypoxia time 4.0 h): 0.7 pg/mg protein | HIF-1α 12 hours after hypoxia initiation ([2]; AG 1.0 mM, hypoxia time 0.5 h): 4.2 pg/mg protein | HIF-1α 24 hours after hypoxia initiation ([2]; AG 1.0 mM, hypoxia time 0.5 h): 3.6 pg/mg protein | HIF-1α 12 hours after hypoxia initiation ([2]; AG 1.0 mM, hypoxia time 1.0 h): 4.6 pg/mg protein | HIF-1α 24 hours after hypoxia initiation ([2]; AG 1.0 mM, hypoxia time 1.0 h): 4.6 pg/mg protein | HIF-1α 12 hours after hypoxia initiation ([2]; AG 1.0 mM, hypoxia time 2.0 h): 3.3 pg/mg protein | HIF-1α 24 hours after hypoxia initiation ([2]; AG 1.0 mM, hypoxia time 2.0 h): 3.3 pg/mg protein | HIF-1α 12 hours after hypoxia initiation ([2]; AG 1.0 mM, hypoxia time 4.0 h): 4.9 pg/mg protein | HIF-1α 24 hours after hypoxia initiation ([2]; AG 1.0 mM, hypoxia time 4.0 h): 4.9 pg/mg protein | HIF-1α difference from untreated controls ([2]; AG 2.0 mM, 12 h post hypoxia initiation, hypoxia time 0.5 h): 3.1 pg/mg protein | HIF-1α difference from untreated controls ([2]; AG 2.0 mM, 12 h post hypoxia initiation, hypoxia time 1.0 h): 4.5 pg/mg protein | HIF-1α difference from untreated controls ([2]; AG 2.0 mM, 12 h post hypoxia initiation, hypoxia time 2.0 h): 2.5 pg/mg protein | HIF-1α difference from untreated controls ([2]; AG 2.0 mM, 12 h post hypoxia initiation, hypoxia time 4.0 h): 1.4 pg/mg protein | HIF-1α difference from untreated controls ([2]; AG 2.0 mM, 24 h post hypoxia initiation, hypoxia time 0.5 h): 1.1 pg/mg protein | HIF-1α difference from untreated controls ([2]; AG 2.0 mM, 24 h post hypoxia initiation, hypoxia time 1.0 h): 5.3 pg/mg protein | HIF-1α difference from untreated controls ([2]; AG 2.0 mM, 24 h post hypoxia initiation, hypoxia time 2.0 h): 1.9 pg/mg protein | HIF-1α difference from untreated controls ([2]; AG 2.0 mM, 24 h post hypoxia initiation, hypoxia time 4.0 h): 1.2 pg/mg protein | HIF-1α 12 hours after hypoxia initiation ([2]; AG 2.0 mM, hypoxia time 0.5 h): 4.7 pg/mg protein | HIF-1α 24 hours after hypoxia initiation ([2]; AG 2.0 mM, hypoxia time 0.5 h): 4.1 pg/mg protein | HIF-1α 12 hours after hypoxia initiation ([2]; AG 2.0 mM, hypoxia time 1.0 h): 2.4 pg/mg protein | HIF-1α 24 hours after hypoxia initiation ([2]; AG 2.0 mM, hypoxia time 1.0 h): 2.4 pg/mg protein | HIF-1α 12 hours after hypoxia initiation ([2]; AG 2.0 mM, hypoxia time 2.0 h): 3.2 pg/mg protein | HIF-1α 24 hours after hypoxia initiation ([2]; AG 2.0 mM, hypoxia time 2.0 h): 3.2 pg/mg protein | HIF-1α 12 hours after hypoxia initiation ([2]; AG 2.0 mM, hypoxia time 4.0 h): 4.4 pg/mg protein | HIF-1α 24 hours after hypoxia initiation ([2]; AG 2.0 mM, hypoxia time 4.0 h): 4.4 pg/mg protein | HIF-1α difference from untreated controls ([2]; AG 10.0 mM, 12 h post hypoxia initiation, hypoxia time 0.5 h): 2.6 pg/mg protein | HIF-1α difference from untreated controls ([2]; AG 10.0 mM, 12 h post hypoxia initiation, hypoxia time 1.0 h): 3.0 pg/mg protein | HIF-1α difference from untreated controls ([2]; AG 10.0 mM, 12 h post hypoxia initiation, hypoxia time 2.0 h): 1.6 pg/mg protein | HIF-1α difference from untreated controls ([2]; AG 10.0 mM, 12 h post hypoxia initiation, hypoxia time 4.0 h): 0.3 pg/mg protein | HIF-1α difference from untreated controls ([2]; AG 10.0 mM, 24 h post hypoxia initiation, hypoxia time 0.5 h): 1.6 pg/mg protein | HIF-1α difference from untreated controls ([2]; AG 10.0 mM, 24 h post hypoxia initiation, hypoxia time 1.0 h): 3.8 pg/mg protein | HIF-1α difference from untreated controls ([2]; AG 10.0 mM, 24 h post hypoxia initiation, hypoxia time 2.0 h): 1 pg/mg protein | HIF-1α difference from untreated controls ([2]; AG 10.0 mM, 24 h post hypoxia initiation, hypoxia time 4.0 h): 0.1 pg/mg protein | HIF-1α 12 hours after hypoxia initiation ([2]; AG 10.0 mM, hypoxia time 0.5 h): 5.2 pg/mg protein | HIF-1α 24 hours after hypoxia initiation ([2]; AG 10.0 mM, hypoxia time 0.5 h): 3.6 pg/mg protein | HIF-1α 12 hours after hypoxia initiation ([2]; AG 10.0 mM, hypoxia time 1.0 h): 3.9 pg/mg protein | HIF-1α 24 hours after hypoxia initiation ([2]; AG 10.0 mM, hypoxia time 1.0 h): 3.9 pg/mg protein | HIF-1α 12 hours after hypoxia initiation ([2]; AG 10.0 mM, hypoxia time 2.0 h): 4.1 pg/mg protein | HIF-1α 24 hours after hypoxia initiation ([2]; AG 10.0 mM, hypoxia time 2.0 h): 4.1 pg/mg protein | HIF-1α 12 hours after hypoxia initiation ([2]; AG 10.0 mM, hypoxia time 4.0 h): 5.5 pg/mg protein | HIF-1α 24 hours after hypoxia initiation ([2]; AG 10.0 mM, hypoxia time 4.0 h): 5.5 pg/mg protein | HIF-1α difference from untreated controls ([2]; Average all doses, 12 h post hypoxia initiation, hypoxia time 0.5 h): 3.1 pg/mg protein | HIF-1α difference from untreated controls ([2]; Average all doses, 12 h post hypoxia initiation, hypoxia time 1.0 h): 3.27 pg/mg protein | HIF-1α difference from untreated controls ([2]; Average all doses, 12 h post hypoxia initiation, hypoxia time 2.0 h): 2.17 pg/mg protein | HIF-1α difference from untreated controls ([2]; Average all doses, 12 h post hypoxia initiation, hypoxia time 4.0 h): 0.87 pg/mg protein | HIF-1α difference from untreated controls ([2]; Average all doses, 24 h post hypoxia initiation, hypoxia time 0.5 h): 1.43 pg/mg protein | HIF-1α difference from untreated controls ([2]; Average all doses, 24 h post hypoxia initiation, hypoxia time 1.0 h): 4.07 pg/mg protein | HIF-1α difference from untreated controls ([2]; Average all doses, 24 h post hypoxia initiation, hypoxia time 2.0 h): 1.57 pg/mg protein | HIF-1α difference from untreated controls ([2]; Average all doses, 24 h post hypoxia initiation, hypoxia time 4.0 h): 0.67 pg/mg protein | effect on HIF-1α as compared to untreated cells ([2]; at 12 and 24 hours, all durations of hypoxia): reduction of HIF-1α
